This note sets out measurements from paper PMC9848270, “Synthesis and biological assessment of indole derivatives containing penta-heterocycles scaffold as novel anticancer agents towards A549 and K562 cells” (Journal of Enzyme Inhibition and Medicinal Chemistry, 2023).

In data set [1] the test system is human non-small cell lung cancer cells (A549). The data set can be described thus: MTT antiproliferative assay, A549. The data set is classed as cell-based. The following applies: for inhibition at 10 µM: A549, 10 μM, read-out: Inhibition rate, A549; for IC50: A549, 48 h, MTT assay, 48 h, read-out: In vitro cytotoxicity IC50, A549. The method, then:
(§1) A549, PC-3, HepG2 and K562 cells were purchased from the Kunming cell bank of the Chinese academy of sciences. All cell lines were cultured in DMEM or RPMI 1640 complete medium. Logarithmic growth cells were cultured in 96-well plates at a concentration of 10^4 cells per well and pre-cultured for 24 h before adding test compounds. The MTT test with 5-Fluorouracil and Gefitinib as reference compounds were used to evaluate antiproliferative activity of target compounds in four human cancer line cells. For the estimation of the inhibition concentration (IC50), the Graph Pad Prism (GraphPad Software, San Diego, CA) was used.

The subject of data set [2] is human prostate cancer cells (PC-3). The data set can be described thus: MTT antiproliferative assay, PC-3. It is filed as cell-based. The following applies: Homo sapiens; for IC50: 48 h, MTT assay, read-out: In vitro cytotoxicity IC50, PC-3; for inhibition at 10 µM: read-out: Inhibition rate, PC-3. The method, then: as §1
In general terms: Tetrazolium dyes change colour on reduction, which living cells bring about.

Data set [3] relates to human liver cancer cells (HepG2). Nature of the data set: MTT antiproliferative assay, HepG2. It is filed as cell-based. The settings on record: for inhibition at 10 µM: read-out: Inhibition rate, HepG2; for IC50: MTT assay, 48 h, read-out: In vitro cytotoxicity IC50, HepG2. The method, then:
as §1

Data set [4] has as its system human chronic myeloid leukaemia cells (K562). Nature of the data set: MTT antiproliferative assay, K562. It is filed as cell-based. The settings on record: for inhibition at 10 µM: K562, 10 μM, read-out: Inhibition rate, K562; for IC50: K562, 48 h, MTT assay, 48 h, read-out: In vitro cytotoxicity IC50, K562. The method, then:
as §1

Data set [5] can be described thus: MTT cytotoxicity, normal cell line HEK293. The following applies: human, HEK293 cells (normal cell line); MTT assay, 48 h; normal cell line; CC50; read-out: In vitro cytotoxicity IC50, HEK293. The data set is classed as cell-based, human.
Data set [6] concerns normal cell line (HEK293). Nature of the data set: MTT cytotoxicity, normal cell line HEK293. The data set is classed as cell-based, human. The following applies: Homo sapiens, HEK293; 10 μM; read-out: Inhibition rate, HEK293.

As usually defined, the inhibition is how much of the control response was suppressed. What is called IC50 is the concentration that inhibits the measured activity by half. The melting point is the temperature of the solid-liquid transition.

As to `O=C(CSc1nnc(-c2cc(Cl)cc(Cl)c2)s1)Nc1cc(-c2c[nH]c3ccccc23)n[nH]1` [Compound 10a, N-(3-(1H-indol-3-yl)-1H-pyrazol-5-yl)-2-((5-(3,5-dichlorophenyl)-1,3,4-thiadiazol-2-yl)thio)acetamide], the inhibition at 10 µM in data set [1] came to 85.6 ± 3.54%; in data set [2], 95.7 ± 0.624%; in data set [3] it was 76 ± 3.39%; in data set [4], 96 ± 2.31%; in data set [6], 87.6 ± 2.19%. The IC50 in data set [1] is 0.433 ± 0.1 µM; in data set [2] it was 0.141 ± 0.01 µM; in data set [3], 4.45 ± 0.42 µM; in data set [4] it was 0.0527 ± 0.02 µM. Moreover, the IC50 at 48 h in data set [5] was found to be 1.33 ± 0.07 µM.
Regarding `O=C(CSc1nnc(Cc2ccc(Cl)cc2)s1)Nc1cc(-c2c[nH]c3ccccc23)n[nH]1` [Compound 10d, N-(3-(1H-indol-3-yl)-1H-pyrazol-5-yl)-2-((5-(4-chlorobenzyl)-1,3,4-thiadiazol-2-yl)thio)acetamide], the melting point lay in the range of 151 to 153 °C. Moreover, in data set [1], the inhibition at 10 µM was determined as 90.7 ± 6.19% and the IC50 came out at 1.28 ± 0.33 µM. Besides, in data set [2], the IC50 was found to be 1.6 ± 0.44 µM and the inhibition at 10 µM amounted to 82.6 ± 4.95%. In data set [3], the inhibition at 10 µM turned out to be 93.7 ± 1.88% and the IC50 amounted to 0.732 ± 0.15 µM. In data set [4], the inhibition at 10 µM was 96.1 ± 1.29% and the IC50 was 0.184 ± 0.02 µM. In data set [5], the half-inhibitory concentration (IC50) at 48 h turned out to be 0.74 ± 1.25 µM. Also, the inhibition at 10 µM in data set [6] came to 84.7 ± 2.75%.
As to `COc1ccc(-c2nnc(SCC(=O)Nc3cc(-c4c[nH]c5ccccc45)n[nH]3)s2)cc1` [Compound 10e, N-(3-(1H-indol-3-yl)-1H-pyrazol-5-yl)-2-((5-(4-methoxyphenyl)-1,3,4-thiadiazol-2-yl)thio)acetamide], the inhibition at 10 µM is 92.2 ± 1.01% in data set [1]; 92.5 ± 0.391% in data set [2]; 95.5 ± 0.354% in data set [3]; 98.7 ± 1.05% in data set [4]; 85.5 ± 1.26% in data set [6]. Besides, the IC50 came out at 0.834 ± 0.09 µM in data set [1], 0.852 ± 0.43 µM in data set [2], 0.801 ± 0.09 µM in data set [3] and 0.193 ± 0.09 µM in data set [4]. Moreover, the IC50 at 48 h in data set [5] is 0.89 ± 2.32 µM.
For `O=C(CSc1nnc(-c2ccc(Cl)cc2)s1)Nc1cc(-c2c[nH]c3ccccc23)n[nH]1` [Compound 10f, N-(3-(1H-indol-3-yl)-1H-pyrazol-5-yl)-2-((5-(4-chlorophenyl)-1,3,4-thiadiazol-2-yl)thio)acetamide], the inhibition at 10 µM was 85.2 ± 3.63% in data set [1]; 58.7 ± 28.6% in data set [2]; 90.3 ± 2.77% in data set [3]; 95.8 ± 3.98% in data set [4]; 60.9 ± 6.65% in data set [6]. For the same compound, the IC50 in data set [1] worked out at 4.33 ± 0.3 µM; in data set [2], 8.86 ± 7.04 µM; in data set [3] it was 3.34 ± 0.6 µM; in data set [4], 0.991 ± 0.52 µM. The IC50 at 48 h in data set [5] amounted to 2.56 ± 0.9 µM.
The compound `O=C(CSc1nnc(-c2cccnc2)s1)Nc1cc(-c2c[nH]c3ccccc23)n[nH]1` [Compound 10h, N-(3-(1H-indol-3-yl)-1H-pyrazol-5-yl)-2-((5-(pyridine-3-yl)-1,3,4-thiadiazol-2-yl)thio)acetamide] gave a melting point of 233 to 235 °C. In data set [1], the inhibition at 10 µM came to 43.5 ± 1.7% and the IC50 stood at 7.96 ± 1.39 µM. Moreover, in data set [2], the IC50 turned out to be 16.7 ± 4.86 µM and the inhibition at 10 µM worked out at 28.9 ± 2.71%. Also, in data set [3], the inhibition at 10 µM was 63.2 ± 5.32% and the IC50 came to 5.58 ± 2.69 µM. Besides, in data set [4], the inhibition at 10 µM came out at 64.3 ± 8.28% and the IC50 was found to be 6.93 ± 1.63 µM. The IC50 at 48 h in data set [5] worked out at 21.9 ± 1.31 µM. Moreover, in data set [6], the inhibition at 10 µM was found to be 18.7 ± 8.52%.
Take `O=C(CSc1nnc(-c2ccccn2)s1)Nc1cc(-c2c[nH]c3ccccc23)n[nH]1` [Compound 10i, N-(3-(1H-indol-3-yl)-1H-pyrazol-5-yl)-2-((5-(pyridine-2-yl)-1,3,4-thiadiazol-2-yl)thio)acetamide]: the melting point lay within 226 to 228 °C. Also, in data set [1], the inhibition at 10 µM was 35.7 ± 2.75% and the IC50 was found to be 12 ± 1.46 µM. In addition, in data set [2], the half-maximal inhibitory concentration (IC50) was found to be 24.1 ± 5.07 µM and the inhibition at 10 µM was 30.5 ± 9.1%. For the same compound, in data set [3], the inhibition at 10 µM was 51.9 ± 5.57% and the IC50 stood at 8.37 ± 2.29 µM. In data set [4], the inhibition at 10 µM was 40.5 ± 6.54% and the IC50 turned out to be 12.5 ± 2.46 µM. Further, in data set [5], the IC50 at 48 h was 26.3 ± 1.63 µM. Further, in data set [6], the inhibition at 10 µM was 46.5 ± 7.5%.
In the case of `Nn1c(SCC(=O)Nc2cc(-c3c[nH]c4ccccc34)n[nH]2)nnc1-c1cc(Cl)cc(Cl)c1` [Compound 11a, N-(3-(1H-indol-3-yl)-1H-pyrazol-5-yl)-2-((4-amino-5–(3,5-dichlorophenyl)-4H-1,2,4-triazol-3-yl)thio)acetamide], the melting point lay in the range of 258 to 260 °C. Besides, in data set [1], the inhibition at 10 µM turned out to be 32.9 ± 3.84% and the IC50 worked out at 27.3 ± 3.47 µM. Besides, in data set [2], the IC50 is 7.66 ± 1.5 µM and the inhibition at 10 µM came to 79 ± 3.97%. For the same compound, in data set [3], the inhibition at 10 µM is 19.3 ± 4.13% and the IC50 turned out to be 40.3 ± 7.83 µM. Also, in data set [4], the inhibition at 10 µM is 95.6 ± 1.68% and the IC50 was 3.64 ± 0.08 µM. Moreover, the IC50 at 48 h in data set [5] was 16.8 ± 5.56 µM. Also, the inhibition at 10 µM in data set [6] came out at 58.5 ± 2.72%.
In turn, `COc1cc(-c2nnc(SCC(=O)Nc3cc(-c4c[nH]c5ccccc45)n[nH]3)n2N)cc(OC)c1OC` [Compound 11b, N-(3-(1H-indol-3-yl)-1H-pyrazol-5-yl)-2-((4-amino-5–(3,4,5-trimethoxyphenyl)-4H-1,2,4-triazol-3-yl)thio)acetamide] gave a melting point of 259 to 261 °C. In data set [1], the inhibition at 10 µM was determined as 32.6 ± 3.42% and the IC50 is 29.8 ± 4.05 µM. In data set [2], the IC50 came to 5.73 ± 1.69 µM and the inhibition at 10 µM is 80.3 ± 3.56%. Moreover, in data set [3], the inhibition at 10 µM is 72.7 ± 4.94% and the IC50 worked out at 10.6 ± 1.42 µM. Besides, in data set [4], the inhibition at 10 µM was 96.4 ± 1.16% and the IC50 was found to be 3.09 ± 0.41 µM. Moreover, the IC50 at 48 h in data set [5] came out at 20.2 ± 4.08 µM. Further, the inhibition at 10 µM in data set [6] came out at 72.1 ± 1.62%.
Turning to `Nn1c(SCC(=O)Nc2cc(-c3c[nH]c4ccccc34)n[nH]2)nnc1-c1ccccc1Br` [Compound 11c, N-(3-(1H-indol-3-yl)-1H-pyrazol-5-yl)-2-((4-amino-5–(2-bromophenyl)-4H-1,2,4-triazol-3-yl)thio)acetamide], the melting point lay in the range of 194 to 195 °C. In data set [1], the inhibition at 10 µM was 10.5 ± 0.521% and the IC50 amounted to 67.7 ± 1.35 µM. Also, in data set [2], the IC50 stood at 60.8 ± 4.73 µM and the inhibition at 10 µM turned out to be 12.3 ± 2.04%. Besides, in data set [3], the inhibition at 10 µM turned out to be 10.4 ± 1.73% and the IC50 turned out to be 74.7 ± 13.4 µM. Also, in data set [4], the inhibition at 10 µM amounted to 14.9 ± 1.32% and the IC50 turned out to be 43.4 ± 1.96 µM. Besides, the IC50 at 48 h in data set [5] is 75.4 ± 2.35 µM. Besides, in data set [6], the inhibition at 10 µM came to 1.73 ± 2.31%.
For the compound `Nn1c(SCC(=O)Nc2cc(-c3c[nH]c4ccccc34)n[nH]2)nnc1-c1ccncc1` [Compound 11o, N-(3-(1H-indol-3-yl)-1H-pyrazol-5-yl)-2-((4-amino-5-(pyridin-4-yl)-4H-1,2,4-triazol-3-yl)thio)acetamide], the melting point fell in the range of 170 to 172 °C. In addition, the IC50 in data set [1] is 30.3 ± 7 µM. Also, in data set [2], the IC50 stood at 38.3 ± 1.75 µM. Besides, the IC50 in data set [3] was found to be 33.4 ± 7.97 µM. For the same compound, in data set [4], the IC50 was 66 ± 3.48 µM. In data set [5], the IC50 at 48 h worked out at 21.8 ± 1.76 µM.
